The text below walks through data of ChEMBL document CHEMBL1122784, “Antitumor imidazotetrazines. 1. Synthesis and chemistry of 8-carbamoyl-3-(2-chloroethyl)imidazo[5,1-d]-1,2,3,5-tetrazin-4(3 H)-one , a novel broad-spectrum antitumor agent” (J Med Chem, 1984).

Holding throughout (type): ADME
Data set [1] can be described thus: Half-life period in 95% ethanol in dark at 28 degrees celsius.
A short description of data set [2]: Half-life period in 95% ethanol in diffuse laboratory light at 28 degrees celsius.
The nature of data set [3]: Half-life period in phosphate buffer at pH 7.4 in the dark at 28 degrees celsius.
Data set [4] is described as follows: Half-life period in 95% ethanol in diffuse laboratory light at 28 degrees celsius.

The structures appear in SMILES notation.

For orientation: half-life means the time needed for the level to fall by half in the phase considered. For `NC(=O)c1ncn2c(=O)n(-c3ccccc3)nnc12`, the half-life worked out at 23 min in data set [1] and 9 min in data set [2].

Consider `NC(=O)c1ncn2c(=O)n(-c3cccc4ccccc34)nnc12`, for which the half-life in data set [1] was found to be 4.6 min.

For `N#Cc1cccc(-n2nnc3c(C(N)=O)ncn3c2=O)c1`, the half-life in data set [1] came out at 2.6 min.

Regarding `CCOc1ccc(-n2nnc3c(C(N)=O)ncn3c2=O)cc1`, the values for the half-life in data set [1] and in data set [2] were 78 min and 8 min, respectively.

`Cc1ccc(-n2nnc3c(C(N)=O)ncn3c2=O)cc1`: the half-life is 40 min in data set [1] and 7.5 min in data set [2].

Turning to `COc1ccc(-n2nnc3c(C(N)=O)ncn3c2=O)cc1`, the half-life in data set [1] came to 69 min; in data set [2], 8.5 min; in data set [3], 155 min.

In the case of `NC(=O)c1ncn2c(=O)n(-c3ccc(Cl)cc3)nnc12`, the half-life in data set [1] worked out at 6.3 min; in data set [2], 8.2 min; in data set [3], 2.9 min.

`NC(=O)c1ncn2c(=O)n(-c3ccc([N+](=O)[O-])cc3)nnc12` registered a half-life in data set [1] of less than 1 min.

As for `CCCn1nnc2c(C(N)=O)ncn2c1=O`, the half-life in data set [1] and in data set [2] was 155 min each time.

Consider `Cn1nnc2c(C(N)=O)ncn2c1=O` [TEMOZOLOMIDE], for which the half-life in data set [1] and in data set [4] was 495 min throughout.
